Our source for the activity and inhibition values is US8501813B2, “γ-secretase inhibitor” (Kabushiki Kaisha Yakult Honsha, priority 2007, dated 2013).

Like-named read-outs stand apart in the source and are kept apart here.

In the assay the target is γ-secretase (Homo sapiens, UniProt P49768). Briefly: Aβ secretion by C99 cells (HEK293 stably expressing APP-C99), γ-secretase inhibitory effect, Aβ ELISA of culture supernatant. It counts as cell-based. Conditions: for activity at 0.3 µM / activity at 1 µM / activity at 3 µM / activity at 10 µM / activity at 0.03 µM / activity at 0.1 µM: HEK293, 24 h; for activity at 0.3 µM: exposure 0.3 μmol/L; for activity at 1 µM: exposure 1 μmol/L; for activity at 3 µM: exposure 3 μmol/L; for activity at 10 µM: exposure 10 μmol/L; for activity at 0.03 µM: exposure 0.03 μmol/L; for activity at 0.1 µM: exposure 0.1 μmol/L; for inhibition at 0.3 µM / inhibition at 10 µM: HEK293, read-out: Aβ40 inhibitory rate (in terms of the inhibitory rate, from secretion rate); for inhibition at 0.3 µM: exposure concentration 0.3 μM; for inhibition at 10 µM: exposure concentration 10 μM. An excerpt:
HEK293 cells (ATCC) were transfected with APP C99 pcDNA3.1 (the nucleotide sequence of its coding region is shown in SEQ ID NO: 1) (J. Biol. Chem., 2003, 278, 49448-49458). Cell strains (C99 cells) confirmed to stably express APP-C99 (artificial APP fragment that originally lacked a polypeptide portion to be cleaved by α- or β-secretase at the first stage in the two-stage reaction of Aβ production from APP) were used to study the γ-secretase inhibitory effects of four test substances (TLVM-5, TLVM-7, TLVM-8, and TLVM-9) in vitro.
In the present test, a medium used for the C99 cells was 500 mL of a Dulbecco's Modified Eagle's Medium (DMEM, Sigma-Aldrich Corp.) supplemented with 55 ml of fetal bovine serum (Biosource), 5.5 ml of MEM non-essential amino acids (Gibco), and 5.5 ml of penicillin/streptomycin (Gibco).
The C99 cells were suspended at a concentration of 5×10^4 cells/ml in the medium. The suspension was added at a concentration of 1 ml (5×10^4 cells)/well to a 24-well collagen plate (Akita Sumitomo Bakelite Co., Ltd.) and cultured for 3 days. Then, the medium in the wells was removed, and the wells were washed with a medium (1 ml/well). The medium was removed, and a fresh medium was then added thereto at a concentration of 0.4 ml/well. The cells were exposed to the test substances and positive controls and incubated for 24 hours, and the culture supernatants were collected. The positive controls used were L-685,458 (CALBIOCHEM) and Boc-Leu-Val-Met-Leu-OMe (hereinafter, referred to as LVML-1) disclosed in Example 1 of Patent Document 1 (WO03/091278). The exposure concentrations were set to four concentrations, 0.3, 1, 3, and 10 μmol/L, for all the test substances and the positive controls. The concentrations of Aβ (1-40) and Aβ (1-42) in the culture supernatants were measured using Human Amyloid β (1-40) (N) Assay Kit (L)-IBL and Human Amyloid β (1-42) (N) Assay Kit (L)-IBL (Immuno-Biological Laboratories, Co., Ltd.). The amounts of Aβ (1-40) and Aβ (1-42) secreted were calculated by subtracting the concentrations of Aβ (1-40) and Aβ (1-42) originally contained in the medium before the C99 cell inoculation, from the measured concentrations thereof, respectively. Moreover, when the Aβ secretion rate of a negative control (5% DMSO-containing medium, resulting in 1% DMSO at the final concentration) is defined as 100%, Aβ secretion rates at each concentration of the test substances and the positive controls were calculated.
The TLVM-5, TLVM-7, TLVM-8, and TLVM-9 confirmed in Example 8 to have strong inhibitory activities against γ-secretase activities were subjected to an additional experiment at low concentrations (exposure concentrations were set to three concentrations, […], for the test substances and to four concentrations, 0.1, 0.3, 1, and 3 μmol/L, for the positive control).
Moreover, Aβ secretion rates at two concentrations of the test substance that bracket the concentration at which Aβ secretion was inhibited by 50% (IC50) were used to calculate IC50 according to the following equation: IC50:10^[LOG(A/B)*(50−C)/(D−C)+LOG(B)],wherein
A: of the two points that bracket 50% inhibition, the higher concentration of the test substance,
B: of the two points that bracket 50% inhibition, the lower concentration of the test substance,
C: secretion rate (%) at the concentration B, and
D: secretion rate (%) at the concentration A.
Background: In an ELISA, binding on a coated surface is turned into a signal by an enzyme label.

Where [1] appears, read: Example 8, 24 h, read-out: Aβ [(1-40) + (1-42)] secretion rate of C99 cells.
The mark [2] stands for this setting: Example 8, 24 h, read-out: Aβ (1-40) secretion rate of C99 cells.
[3] abbreviates: Example 9 (low concentrations), read-out: Aβ (1-40) secretion rate of C99 cells.
[4] abbreviates: Example 9, read-out: Aβ (1-42) secretion rate of C99 cells.
Setting [5] is: Example 9, read-out: Aβ [(1-40) + (1-42)] secretion rate of C99 cells.
The mark [6] stands for this setting: Example 9, read-out: Aβ (1-40) secretion rate of C99 cells.
The mark [7] stands for this setting: Example 8, 24 h, negative control = 100%, read-out: Aβ (1-40) secretion rate of C99 cells.
[8] abbreviates: Example 8, 24 h, read-out: Aβ (1-42) secretion rate of C99 cells.

Take `CSCCC(NC(=O)C(NC(=O)C(CC(C)C)CC(O)C(NC(=O)OC(C)(C)C)C(C)O)C(C)C)C(=O)NCc1ccccc1` [TLVM-5, [5S-(tert-butoxycarbonylamino)-4R,6R-dihydroxy-2R-(2-methylpropyl)heptanoyl]-L-valyl-L-methionine benzylamide]: the inhibition at 0.3 µM is not below 76% and the inhibition at 10 µM was not below 97%. Under setting [1], the activity at 0.3 µM is 14%, the activity at 1 µM amounted to 8%, the activity at 3 µM is 7% and the activity at 10 µM was 6%. Moreover, under setting [2], the activity at 1 µM came out at 5%, the activity at 3 µM is 4% and the activity at 10 µM was not above 3%. The activity at 0.03 µM under setting [3] was determined as 100%. In addition, under setting [4], the activity at 0.03 µM amounted to 131%, the activity at 0.1 µM came out at 74% and the activity at 0.3 µM was 43%. In addition, under setting [5], the activity at 0.03 µM was 101%, the activity at 0.1 µM is 40% and the activity at 0.3 µM is 16%. Under setting [6], the activity at 0.1 µM came to 39% and the activity at 0.3 µM is 15%.

For the compound `CCCCNC(=O)C(CCSC)NC(=O)C(NC(=O)C(CC(C)C)CC(O)C(NC(=O)OC(C)(C)C)C(C)O)C(C)C` [TLVM-7, [5S-(tert-butoxycarbonylamino)-4R,6R-dihydroxy-2R-(2-methylpropyl)heptanoyl]-L-valyl-L-methionine n-butylamide], the inhibition at 0.3 µM is not below 76% and the inhibition at 10 µM was not below 97%. Also, under setting [7], the activity at 0.3 µM was not above 24%. In addition, under setting [8], the activity at 0.3 µM was 15%, the activity at 1 µM worked out at 55%, the activity at 3 µM stood at 67% and the activity at 10 µM stood at 0%. In addition, under setting [1], the activity at 0.3 µM was 23%, the activity at 1 µM is 10%, the activity at 3 µM was found to be 4% and the activity at 10 µM stood at 2%. Further, under setting [2], the activity at 1 µM amounted to 8%, the activity at 3 µM is 1% and the activity at 10 µM is not above 3%. Under setting [3], the activity at 0.03 µM was 124%. Under setting [4], the activity at 0.03 µM turned out to be 156%, the activity at 0.1 µM is 94% and the activity at 0.3 µM is 33%. Also, under setting [5], the activity at 0.03 µM came to 126%, the activity at 0.1 µM came to 44% and the activity at 0.3 µM was 14%. Under setting [6], the activity at 0.1 µM is 42% and the activity at 0.3 µM was found to be 13%.

Regarding `CSCCC(NC(=O)C(NC(=O)C(CC(C)C)CC(O)C(NC(=O)OC(C)(C)C)C(C)O)C(C)C)C(=O)NC(C)c1ccccc1` [TLVM-8, [5S-(tert-butoxycarbonylamino)-4R,6R-dihydroxy-2R-(2-methylpropyl)heptanoyl]-L-valyl-L-methionine (S)-α-methylbenzylamide], the inhibition at 0.3 µM is not below 76% and the inhibition at 10 µM is not below 97%. Further, under setting [8], the activity at 0.3 µM came out at 7%, the activity at 1 µM was found to be 11%, the activity at 3 µM worked out at 61% and the activity at 10 µM amounted to 0%. Also, under setting [1], the activity at 0.3 µM came to 7%, the activity at 1 µM is 1%, the activity at 3 µM worked out at 5% and the activity at 10 µM is 1%. Under setting [2], the activity at 1 µM was found to be 1% and the activity at 3 µM turned out to be 2%. Further, the activity at 0.03 µM under setting [3] worked out at 53%. Under setting [4], the activity at 0.03 µM is 71%, the activity at 0.1 µM worked out at 52% and the activity at 0.3 µM was found to be 33%. Also, under setting [5], the activity at 0.03 µM was determined as 54%, the activity at 0.1 µM was 17% and the activity at 0.3 µM stood at 8%. Moreover, under setting [6], the activity at 0.1 µM came out at 16% and the activity at 0.3 µM is 7%.

Regarding `CSCCC(NC(=O)C(NC(=O)C(CC(C)C)CC(O)C(NC(=O)OC(C)(C)C)C(C)O)C(C)C)C(=O)NCc1ccc(F)cc1` [TLVM-9, [5S-(tert-butoxycarbonylamino)-4R,6R-dihydroxy-2R-(2-methylpropyl)heptanoyl]-L-valyl-L-methionine 4-fluorobenzylamide], the inhibition at 0.3 µM was not below 76% and the inhibition at 10 µM is not below 97%. Moreover, the activity at 0.3 µM under setting [7] was not above 24%. Further, under setting [8], the activity at 0.3 µM is 2%, the activity at 1 µM worked out at 11%, the activity at 3 µM was found to be 37% and the activity at 10 µM amounted to 0%. Under setting [1], the activity at 0.3 µM was found to be 15%, the activity at 1 µM stood at 8%, the activity at 3 µM came out at 7% and the activity at 10 µM was found to be 3%. Also, under setting [2], the activity at 1 µM was determined as 8%, the activity at 3 µM worked out at 5% and the activity at 10 µM is not above 3%. Further, the activity at 0.03 µM under setting [3] came out at 94%. In addition, under setting [4], the activity at 0.03 µM was 97%, the activity at 0.1 µM came to 67% and the activity at 0.3 µM came out at 49%. Besides, under setting [5], the activity at 0.03 µM is 94%, the activity at 0.1 µM amounted to 33% and the activity at 0.3 µM was determined as 18%. For the same compound, under setting [6], the activity at 0.1 µM came to 32% and the activity at 0.3 µM stood at 17%.
